This series is described as follows: Single oral dose mouse PK in male CD-1 mice. Particulars: plasma, single oral dose 50 mg/kg, Mean ± SD, n = 3, vehicle: Group 1 100% PEG400, Groups 2-3 DI water, Group 4 0.5% methylcellulose in water (w/v). The series is classed as in vivo. The procedure: Amorphous solid dispersions of Compound A in aqueous suspension formulations were administered via oral gavage in male CD-1 mice to assess Compound A plasma exposure. Pharmacokinetics (PK) of Compound A crystalline drug substance dissolved in organic solvent (PEG400) were used to generate a solution formulation—also included as the comparator group in this study. The concentrations of Compound A in mouse plasma were quantified with a qualified LC-MS/MS method.
Each oral dosing group consisted of 3 male CD-1 mice. At dosing, the animals weighted between 0.0297 to 0.0376 kg. Animals were not fasted prior to oral administration in this study. Compound A drug substances in corresponding dosing vehicles were administered by oral route using polypropylene gavage tube to CD-1 mice. Serial blood samples were collected at 0.25, 0.50, 1, 4, 8 and 24 hours post-dose. Serial blood samples were collected from a tail vein or another approved method at 0.25, 0.50, 1, 4, 8 hours post-dose. Terminal blood collection were collected via cardiac puncture at 24 hours post-dose.
Blood samples were collected into K2EDTA tubes according to in-life study protocol and immediately placed on wet ice and then centrifuged for 10 minutes at 3500 rpm for plasma preparation. All plasma samples were placed in 96-well strip-tube rack and stored in freezer until plasma analysis. Immediately following terminal blood collection, the brain tissue was collected for each animal. Each tissue was collected into pre-weighed tube and the weight of the tissue sample was determined. Samples were flash frozen and kept on dry ice until stored at −70° C. prior to sample processing and analysis. Table 27 provides the study design for the oral administration of Compound A in mice and summary of mouse PK parameters.
Non compartmental pharmacokinetic (NCA) analysis was performed on plasma concentration data using WinNonlin module in the Phoenix Platform (version 8.3.1 or above, Certara Inc., Princeton, NJ 08540). Calculations were performed using nominal sampling times in the pharmacokinetic analysis. All pharmacokinetic parameters and summary statistics are reported to 3 significant digits except for Tmax, which is reported to 2 decimal places. • Cmax: Observed peak blood/plasma concentration • Tmax: Time to reach observed peak blood/plasma concentration • kel: Elimination rate constant determined by linear regression analysis of selected time points in the apparent terminal phase of the log plasma concentration vs. time curve (not reported) • t1/2: Apparent terminal half-life calculated as ln(2)/kel • MRT: Mean time a drug molecule resides in body • AUC0-last: Area under the plasma concentration vs. time curve from 0 to the last quantifiable concentration calculated by the linear trapezoidal method • AUC0-inf: Area under the plasma concentration vs. time curve from 0 h to infinity, calculated as AUC0-last+Clast/kel

The values that follow come from patent publication US20240041765A1, “ORAL LIQUID SUSPENSION OF PAN-RAF KINASE INHIBITOR” (DAY ONE BIOPHARMACEUTICALS, INC., priority 2022, published 2024).

As for `C[C@@H](NC(=O)c1ncnc(N)c1Cl)c1ncc(C(=O)Nc2cc(C(F)(F)F)c(Cl)cn2)s1` [DAY 101 API], the AUC0-inf was 407 ± 20.4 µg·h/mL, the AUC0-last is 300 ± 24.7 µg·h/mL, the peak concentration (Cmax) is 18300 ± 1510 ng/mL and the MRTlast was found to be 9.42 ± 0.573 h. The Tmax came out at 8.00 ± 0.00 h and the t1/2 is 12.7 ± 2.30 h.

Broadly, the Cmax is the highest concentration seen after dosing. The term Tmax denotes the time at which the peak concentration occurs.
